{"source": "ChEMBL document CHEMBL5120959", "about": "“Pyrrospirones K-Q, Decahydrofluorene-Class Alkaloids from the Marine-Derived Fungus Penicillium sp. SCSIO 41512” (J Nat Prod, 2022)", "system": "Mycobacterium tuberculosis", "experiment": "Antitubercular activity against Mycobacterium tuberculosis H37Ra", "type": "functional"}
{"smiles": "C=C[C@H]1C=C[C@@H]2[C@@H]3[C@@H](Oc4ccc(cc4)C[C@@]4(O)C[C@H](C(=O)N4)C(=O)[C@@H]13)[C@@H]1CC[C@@H](C)C[C@@]21C", "values": [{"measurement": "MIC", "value": 0.78, "unit": "µg/mL"}]}
